From PMC10482691, “LTP induction by structural rather than enzymatic functions of CaMKII” (Nature, 2023)
Several values for one entry are separate records, joined by “and”; a condition that tells them apart may be missing. Equal entries are not always repeated.

Assays:
[1] = target: purified CaMKIIα binding to GST–GluN2B-c S1303A (Homo sapiens, UniProt Q9UQM7); assay: CaMKII binding to immobilized GST–GluN2B-c S1303A in vitro
Pim-3(h) = Pim-3(h) (Homo sapiens, UniProt Q86V86); assay: Kinase selectivity panel (residual activity at 1 μM); type: biochemical; conditions: inhibitor at 1 μM; read-out: residual kinase activity in % of maximal activity
PDGFRβ(h) = PDGFRβ(h) (Homo sapiens, UniProt P09619); assay: as above; type: biochemical; conditions: inhibitor at 1 μM; read-out: residual kinase activity in % of maximal activity
Aurora-C(h) = Aurora-C(h) (Homo sapiens, UniProt Q9UQB9); assay: as above; type: biochemical; conditions: inhibitor at 1 μM; read-out: residual kinase activity in % of maximal activity
purified CaMKII = purified CaMKII (Rattus norvegicus, UniProt P11275); assay: In vitro kinase reaction: CaMKII phosphorylation of GST-2BC (GluN2B) S1303; type: biochemical
Protocol: CaMKII-mediated phosphorylation of GluA1 S831 or GluN2B S1303 was measured by in vitro kinase reaction with a purified GST–GluA1 C-terminal tail or GST-GluN2B C-terminal tail. Reactions contained 40 nM CaMKII, 1 μM GST–GluA1, 50 mM PIPES, pH 7.1, 2 mM CaCl2, 10 mM MgCl2, 1 μM calmodulin, 1–4 mM ATP and 1 μM okadaic acid. Negative controls were prepared without ATP. Reactions were done at 30 °C for 20 s; reactions were stopped by adding SDS loading buffer and incubation in a boiling water bath for 5 min. GST, phospho-S831, CaMKII, phospho-T286 or phospho-S1303 were detected in the samples by immunoblot analysis.
Extended Data Fig. 3 No difference in LTP in WT mice when CaMKII is inhibited by either 10 or 30 μM AS283. Data are presented as mean values +/− SEM. a, 2x HFS potentiates the CA3-CA1 Schaffer collateral pathway in WT mice when CaMKII enzymatic activity is inhibited by 10 or 30 μM AS283 (incubated for 15 min prior to HFS, and washed out 5 min after). b, Quantification of LTP in WT mice after 10 or 30 μM AS283 (n = 3,7 hippocampal slices; Mann-Whitney test). p = 0.3833. c, Representative immunoblot and quantification of CaMKII T286 phosphorylation in dissociated hippocampal cultures after cLTP and inhibition by 10 μM AS283 (n = 4 independent cell preparations; one-way ANOVA, Tukey’s multiple comparisons test). […]

[2] = test system: CA3–CA1 LTP in CaMKII T286A mutant slices; assay: LTP field recordings in hippocampal slices of T286A mice; type: cell-based, mouse; conditions: for fEPSP slope (normalized to baseline): individual slices, sheet 3c
Protocol: WT and mutant mouse hippocampal slices were prepared using P56–P70 mice. Isoflurane-anesthetized mice were rapidly decapitated, and the brain was dissected in an ice-cold high-sucrose solution containing 220 mM sucrose, 12 mM MgSO4, 10 mM glucose, 0.2 mM CaCl2, 0.5 mM KCl, 0.65 mM NaH2PO4, 13 mM NaHCO3 and 1.8 mM ascorbate. Transverse hippocampal slices (400 μm) were made using a tissue chopper (McIlwain) and transferred into 32 °C ACSF containing 124 mM NaCl, 3.5 mM KCl, 1.3 mM NaH2PO4, 26 mM NaHCO3, 10 mM glucose, 2 mM CaCl2, 1 mM MgSO4 and 1.8 mM ascorbate. All slices were recovered in 95% O2/5% CO2 for at least 1.5 h before experimentation.
For electrophysiological slice recording experiments, a glass micropipette (typical resistance of 0.4–0.8 megaohm when filled with ACSF) was used to record fEPSPs from the CA1 dendritic layer in response to stimulation of the Schaffer collaterals using a tungsten bipolar electrode. Slices were continually perfused with 30.5 °C ± 0.5 °C ACSF at a rate of 2.5 ± 0.5 ml min^−1 during recordings. Stimuli were delivered every 20 s, and three responses (1 min) were averaged for analysis. Data were analysed using WinLTP software with slope calculated as the initial rise from 10 to 60% of the response peak. Input–output curves were generated by increasing the stimulus intensity at a constant interval until a maximum response or population spike was noted to determine stimulation that elicits 50% of maximum slope. […] A stable baseline was acquired for a minimum of 20 min at 50% maximum slope before high-frequency stimulation (HFS; 2 × 100 Hz, 10 s interval) was applied. Responses were recorded for 40 or 60 min after HFS. Change in slope was calculated as a ratio of the average slope of the 20 min baseline (before HFS). Bar graphs of the percentage of fEPSP slope were calculated by averaging the last 10 min time points post-HFS and normalized to baseline.

CaMKIIα(h) = CaMKIIα(h) (Homo sapiens, UniProt Q9UQM7); assay: Kinase selectivity panel (residual activity at 1 μM); type: biochemical; conditions: inhibitor at 1 μM; read-out: residual kinase activity in % of maximal activity
PAK2(h) = PAK2(h) (Homo sapiens, UniProt Q13177); assay: as above; type: biochemical; conditions: inhibitor at 1 μM; read-out: residual kinase activity in % of maximal activity
PAK2(h), sequence (Q13177 whole entry): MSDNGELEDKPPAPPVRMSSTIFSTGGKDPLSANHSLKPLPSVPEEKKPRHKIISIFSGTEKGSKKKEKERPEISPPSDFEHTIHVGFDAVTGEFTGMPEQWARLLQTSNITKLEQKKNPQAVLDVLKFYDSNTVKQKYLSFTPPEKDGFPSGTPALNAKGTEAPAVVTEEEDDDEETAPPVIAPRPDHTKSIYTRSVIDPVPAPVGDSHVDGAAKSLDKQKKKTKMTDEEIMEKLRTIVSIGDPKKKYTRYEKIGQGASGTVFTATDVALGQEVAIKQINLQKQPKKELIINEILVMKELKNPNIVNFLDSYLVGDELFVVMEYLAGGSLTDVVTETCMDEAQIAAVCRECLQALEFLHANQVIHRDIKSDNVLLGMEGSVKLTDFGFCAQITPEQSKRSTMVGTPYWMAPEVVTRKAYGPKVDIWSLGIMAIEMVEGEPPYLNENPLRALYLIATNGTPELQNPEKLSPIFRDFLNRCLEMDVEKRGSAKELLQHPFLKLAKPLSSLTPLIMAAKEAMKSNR

CaMKIIα(h), sequence (Q9UQM7 whole entry): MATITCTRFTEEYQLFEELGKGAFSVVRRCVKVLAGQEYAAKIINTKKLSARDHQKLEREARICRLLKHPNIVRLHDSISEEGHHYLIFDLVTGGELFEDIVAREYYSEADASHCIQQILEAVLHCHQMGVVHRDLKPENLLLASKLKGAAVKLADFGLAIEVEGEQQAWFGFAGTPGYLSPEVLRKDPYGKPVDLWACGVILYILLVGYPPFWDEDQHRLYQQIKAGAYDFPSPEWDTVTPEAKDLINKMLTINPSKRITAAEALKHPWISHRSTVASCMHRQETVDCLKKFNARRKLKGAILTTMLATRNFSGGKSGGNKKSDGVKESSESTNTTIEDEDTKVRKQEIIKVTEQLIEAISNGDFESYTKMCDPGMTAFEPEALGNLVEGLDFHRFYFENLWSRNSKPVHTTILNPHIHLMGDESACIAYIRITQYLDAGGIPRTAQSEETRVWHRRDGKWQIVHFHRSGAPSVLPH
Aurora-C(h), sequence (Q9UQB9 whole entry): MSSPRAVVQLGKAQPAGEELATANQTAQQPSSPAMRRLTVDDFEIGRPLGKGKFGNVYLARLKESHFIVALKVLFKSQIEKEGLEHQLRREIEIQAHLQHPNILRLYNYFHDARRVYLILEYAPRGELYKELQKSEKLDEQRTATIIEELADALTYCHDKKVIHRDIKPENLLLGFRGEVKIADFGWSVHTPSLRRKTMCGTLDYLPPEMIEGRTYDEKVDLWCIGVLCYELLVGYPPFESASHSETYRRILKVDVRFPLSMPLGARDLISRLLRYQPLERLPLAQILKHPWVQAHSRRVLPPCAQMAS
PDGFRβ(h), sequence (P09619 33-1106): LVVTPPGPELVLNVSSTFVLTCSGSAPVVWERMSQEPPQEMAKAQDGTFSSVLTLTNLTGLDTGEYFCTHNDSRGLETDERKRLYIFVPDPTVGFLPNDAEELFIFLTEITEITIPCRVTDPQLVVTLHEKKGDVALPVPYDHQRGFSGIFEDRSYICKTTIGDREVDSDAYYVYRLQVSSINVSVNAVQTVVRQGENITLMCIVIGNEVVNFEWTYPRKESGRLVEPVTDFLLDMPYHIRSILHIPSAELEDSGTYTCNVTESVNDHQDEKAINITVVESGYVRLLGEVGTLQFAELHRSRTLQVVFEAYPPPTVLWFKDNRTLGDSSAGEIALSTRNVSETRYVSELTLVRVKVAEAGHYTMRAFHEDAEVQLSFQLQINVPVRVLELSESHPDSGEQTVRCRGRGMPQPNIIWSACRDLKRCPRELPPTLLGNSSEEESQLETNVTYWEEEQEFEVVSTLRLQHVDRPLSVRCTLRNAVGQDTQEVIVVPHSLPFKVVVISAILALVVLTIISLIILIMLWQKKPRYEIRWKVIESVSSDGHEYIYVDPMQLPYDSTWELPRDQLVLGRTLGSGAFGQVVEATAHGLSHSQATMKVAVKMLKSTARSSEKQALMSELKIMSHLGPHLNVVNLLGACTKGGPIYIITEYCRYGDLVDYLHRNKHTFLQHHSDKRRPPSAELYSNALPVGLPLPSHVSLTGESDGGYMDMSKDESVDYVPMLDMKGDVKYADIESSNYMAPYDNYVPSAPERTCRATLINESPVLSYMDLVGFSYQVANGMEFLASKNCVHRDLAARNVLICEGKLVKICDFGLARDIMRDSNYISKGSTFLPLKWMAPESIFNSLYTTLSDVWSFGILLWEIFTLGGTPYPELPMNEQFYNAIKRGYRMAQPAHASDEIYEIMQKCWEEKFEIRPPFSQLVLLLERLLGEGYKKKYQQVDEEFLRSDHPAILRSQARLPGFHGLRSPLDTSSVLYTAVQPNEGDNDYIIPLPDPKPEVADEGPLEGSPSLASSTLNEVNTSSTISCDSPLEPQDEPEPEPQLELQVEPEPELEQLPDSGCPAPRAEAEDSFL

## NCCNc1cccc(-c2ccnc3[nH]c4ccccc4c23)c1 [AS283]
[1]; Ca2+/CaM, 10 μM AS283, no nucleotide, GST–GluN2B-c S1303A
  bound CaMKIIα (immunoblot, relative): 4.303 and 5.73 and 6.682
[1]; GluN2B S1303A mutant
  enhancing effect on CaMKII binding compared with ATP: indistinguishable
Pim-3(h)
  remaining activity at 1 µM: 97%
PDGFRβ(h)
  remaining activity at 1 µM: 111%
Aurora-C(h)
  remaining activity at 1 µM: 63%
Purified CaMKII; ATP + 10 μM AS283, 30 °C
  GluN2B S1303 phosphorylation (immunoblot, normalized): 25.6775% and 36.949% and 34.6383% and 24.0932%
Purified CaMKII; WT GluN2B C terminus
  effect on CaMKII-mediated S1303 phosphorylation: inhibited
[2]; AS283 10 μM
  effect on LTP in slices from T286A mutant mice: enabled LTP
[2]; T286A mice, 10 μM AS283 during LTP induction
  LTP quantification (fEPSP slope normalized to baseline): 173.525% and 142.167% and 174.092% and 153.624%
[2]; Time (min) 1.33333
  fEPSP slope (normalized to baseline): 226.574 and 276.052 and 180.946 and 150.731
[2]; Time (min) 2.33333
  fEPSP slope (normalized to baseline): 192.365 and 206.349 and 186.037 and 149.446
[2]; Time (min) 3.33333
  fEPSP slope (normalized to baseline): 182.945 and 175.983 and 184.471 and 147.196
[2]; Time (min) 4.33333
  fEPSP slope (normalized to baseline): 177.987 and 162.181 and 176.442 and 135.626
[2]; Time (min) 5.33333
  fEPSP slope (normalized to baseline): 158.156 and 152.519 and 169.979 and 137.876
[2]; Time (min) 6.33333
  fEPSP slope (normalized to baseline): 150.223 and 154.589 and 168.609 and 152.017
[2]; Time (min) 7.33333
  fEPSP slope (normalized to baseline): 124.442 and 151.829 and 171.154 and 133.698
[2]; Time (min) 8.33333
  fEPSP slope (normalized to baseline): 102.628 and 144.237 and 169 and 134.983
[2]; Time (min) 9.33333
  fEPSP slope (normalized to baseline): 104.115 and 145.618 and 173.309 and 134.983
[2]; Time (min) 10.3333
  fEPSP slope (normalized to baseline): 122.955 and 140.787 and 178.596 and 135.626
[2]; Time (min) 11.3333
  fEPSP slope (normalized to baseline): 100.149 and 132.505 and 172.721 and 133.055
[2]; Time (min) 12.3333
  fEPSP slope (normalized to baseline): 126.921 and 132.505 and 175.267 and 134.662
[2]; Time (min) -1
  fEPSP slope (normalized to baseline): 91.7204 and 91.0973 and 91.6479 and 102.523
[2]; Time (min) -2
  fEPSP slope (normalized to baseline): 90.7288 and 96.6184 and 93.802 and 102.844
[2]; Time (min) -3
  fEPSP slope (normalized to baseline): 103.619 and 106.97 and 89.298 and 98.6662
[2]; Time (min) -4
  fEPSP slope (normalized to baseline): 104.115 and 88.3368 and 91.2562 and 100.916
[2]; Time (min) -5
  fEPSP slope (normalized to baseline): 91.7204 and 91.0973 and 97.7186 and 101.237
[2]; Time (min) -6
  fEPSP slope (normalized to baseline): 96.1825 and 96.6184 and 96.7395 and 100.273
[2]; Time (min) -7
  fEPSP slope (normalized to baseline): 87.2583 and 94.548 and 98.5019 and 100.916
[2]; Time (min) -8
  fEPSP slope (normalized to baseline): 96.1825 and 95.9282 and 99.6769 and 97.7021
[2]; Time (min) -9
  fEPSP slope (normalized to baseline): 98.6614 and 96.6184 and 102.614 and 101.88
[2]; Time (min) -10
  fEPSP slope (normalized to baseline): 90.7288 and 91.0973 and 99.0894 and 97.0593
[2]; Time (min) -11
  fEPSP slope (normalized to baseline): 103.124 and 102.139 and 101.439 and 98.9876
[2]; Time (min) -12
  fEPSP slope (normalized to baseline): 109.073 and 120.083 and 100.656 and 94.4882
[2]; Time (min) -13
  fEPSP slope (normalized to baseline): 105.602 and 105.59 and 103.398 and 96.4165
CaMKIIα(h)
  remaining activity at 1 µM: 3%
PAK2(h)
  remaining activity at 1 µM: 76%
